Assay results from PubChem BioAssay AID1259408 (Genetic Toxicology Data Bank (GENE-TOX), 2018).
Activity calls are given as the source filed them. The rule behind the calls is not given here.

Tested on: GENE-TOX genotoxicity assays, various organisms and cells
Experiment: GENE-TOX mutagenicity studies
[1] = Species/Cell Type: Nonhuman, Assay Type: Sister-chromatid exchange (SCE) in vitro, Assay Code: SC2+, Evaluation Type: Evaluation B (Post-1980)
[2] = Species/Cell Type: Bacillus subtilis (H17 vs M45), Assay Type: Rec-assay, spot test, DNA effects (bacterial DNA repair), Assay Code: REWT, Evaluation Type: Evaluation A (Pre-1980)
[3] = Species/Cell Type: Escherichia coli WP2, Assay Type: Tryptophan reverse gene mutation, Assay Code: WP2-, Evaluation Type: Evaluation A (Pre-1980)

Q: [N-]=[N+]=Nc1ccc2c(c1)Cc1ccccc1-2 was tested. Which mutagenic call (Species/Cell Type: Mouse (C3H/10T1/2) cells, Assay Type: Cell transformation, Assay Code: CTH-, Evaluation Type: Evaluation A (Pre-1980)) did it give?
A: inactive; negative

Q: Which mutagenic call [1] does the source give for c1cncc([C@@H]2CCCN2)c1 here?
A: active; positive

Q: Which mutagenic call [1] does the source give for O=C1c2cccc(O)c2C(=O)c2c(NCCNCCO)ccc(NCCNCCO)c21 here?
A: active; positive

Q: What does the source list for CN=C(NC#N)NCCSCc1nc[nH]c1C?
A: mutagenic call (Species/Cell Type: Human lymphocytes, Assay Type: Sister-chromatid exchange (SCE) in vitro, Assay Code: SCLT, Evaluation Type: Evaluation B (Post-1980)): no conclusion; mutagenic call (Species/Cell Type: Human, Assay Type: Sister-chromatid exchange (SCE) in vitro, Assay Code: SC1T, Evaluation Type: Evaluation B (Post-1980)): no conclusion; mutagenic call (Species/Cell Type: Human, Sex: Male, Assay Type: Sperm morphology, Assay Code: SPHT, Evaluation Type: Evaluation A (Pre-1980)): no conclusion

Q: How did the mutagenic call (Species/Cell Type: Drosophila melanogaster, Assay Type: Sex-linked recessive lethal gene mutation, Assay Code: SRL+, Evaluation Type: Evaluation A (Pre-1980)) turn out when CC1CN1P(=O)(Cc1ccccc1)N1CC1C (stereo unspecified) was run?
A: active; positive

Q: Which mutagenic call (Species/Cell Type: Chinese hamster lung (V79) cells, Assay Type: Forward gene mutation at the HPRT or ouabain locus, Assay Code: V79+, Evaluation Type: Evaluation A (Pre-1980)) does the source give for O=C(O)CN(CC(=O)O)C1C[C@H]1N(CC(=O)O)CC(=O)O (stereo partly specified) here?
A: active; positive

Q: C[C@@H]1O[C@@H](OC[C@H]2O[C@@H](Oc3c(-c4ccc(O)c(O)c4)oc4cc(O)cc(O)c4c3=O)[C@H](O)[C@@H](O)[C@@H]2O)[C@H](O)[C@H](O)[C@H]1O was tested. Which mutagenic call (Species/Cell Type: Mammalian polychromatic erythrocytes, Assay Type: Micronucleus test, chromosome aberrations, Assay Code: MNTT, Evaluation Type: Evaluation B (Post-1980)) did it give?
A: no conclusion

Q: CC(=O)Nc1ccc(-c2ccc(NO)cc2)cc1 was tested. Which mutagenic call (Species/Cell Type: Chinese hamster ovary (CHO) cells, Assay Type: Forward gene mutation at the HPRT locus, Assay Code: CHO+, Evaluation Type: Evaluation B (Post-1980)) did it give?
A: active; positive

Q: For CCCCOC(=O)COc1cc(Cl)c(Cl)cc1Cl, which mutagenic call (Species/Cell Type: Salmonella typhimurium, Serratia marcesens, Assay Type: Forward and reverse gene mutation, host-mediated assay, Assay Code: HM2T, Evaluation Type: Evaluation A (Pre-1980)) is on record?
A: no conclusion

Q: C[C@]12CC[C@H]3[C@@H](CCC4=CC(=O)CC[C@@]43C)[C@@H]1CC[C@@H]2OC(=O)CCC1CCCC1 was tested. Which mutagenic call (Species/Cell Type: Human, Sex: Male, Assay Type: Sperm morphology, Assay Code: SPH+, Evaluation Type: Evaluation A (Pre-1980)) did it give?
A: active; positive

Q: How did the mutagenic call (Species/Cell Type: Salmonella typhimurium, Assay Type: Forward and reverse gene mutation, body fluid assay, Assay Code: BFU-, Evaluation Type: Evaluation A (Pre-1980)) turn out when COc1ccc([C@@H]2CC(=O)c3c(O)cc(O[C@@H]4O[C@H](CO)[C@@H](O)[C@H](O)[C@H]4O[C@@H]4O[C@@H](C)[C@H](O)[C@@H](O)[C@H]4O)cc3O2)cc1O was run?
A: inactive; negative

Q: [Be+2] was tested. Which mutagenic call (Species/Cell Type: Bacillus subtilis (H17 vs M45), Assay Type: Rec-assay, spot test, DNA effects (bacterial DNA repair), Assay Code: REW-, Evaluation Type: Evaluation A (Pre-1980)) did it give?
A: inactive; negative

Q: How did the mutagenic call (Species/Cell Type: Salmonella typhimurium (one or more of the five standard strains: TA98, TA100, TA1535, TA1537, and TA1538), Assay Type: Histidine reverse gene mutation, Ames assay, Assay Code: SALT, Evaluation Type: Evaluation A (Pre-1980)) turn out when O=C(O)C(F)(F)F was run?
A: no conclusion

Q: Which mutagenic call [2] does the source give for Nc1ccc(N=Nc2cccc(N=Nc3ccc(N)cc3N)c2)c(N)c1 here?
A: no conclusion

Q: How did the mutagenic call (Species/Cell Type: Bacillus subtilis (H17 vs M45), Assay Type: Rec-assay, spot test, DNA effects (bacterial DNA repair), Assay Code: REW+, Evaluation Type: Evaluation A (Pre-1980)) turn out when O.O.O.[Co] was run?
A: active; positive

Q: For CNC(=O)Oc1cc(C)cc(C)c1, which mutagenic call (Species/Cell Type: Bacillus subtilis (H17 vs M45T), Assay Type: Rec-assay, spot test, DNA effects (bacterial DNA repair), Assay Code: REX-, Evaluation Type: Evaluation A (Pre-1980)) is on record?
A: inactive; negative

Q: What about the mutagenic call [3] of the same molecule?
A: inactive; negative

Q: Which results are given for CN(C)S(=O)(=O)N(SC(F)(Cl)Cl)c1ccccc1?
A: mutagenic call [2]: no conclusion; mutagenic call (Species/Cell Type: Saccharomyces cerevisiae, Assay Type: Mitotic recombination or gene conversion, Assay Code: YEC-, Evaluation Type: Evaluation A (Pre-1980)): inactive; negative

Q: With CN(O)C(=O)c1ccc2ccccc2c1 as the molecule, how does the mutagenic call [1] read?
A: active; positive

Q: O=C(NO)c1cc2ccccc2[nH]1 was tested. Which mutagenic call (Species/Cell Type: Salmonella typhimurium (one or more of the five standard strains: TA98, TA100, TA1535, TA1537, and TA1538), Assay Type: Histidine reverse gene mutation, Ames assay, Assay Code: SAL+, Evaluation Type: Evaluation A (Pre-1980)) did it give?
A: active; positive

Q: COC(=O)/C=C(\C)CCCC(C)(Cl)CCCC(C)(C)Cl (stereo unspecified) was tested. Which mutagenic call (Species/Cell Type: Drosophila melanogaster, Assay Type: Sex-linked recessive lethal gene mutation, Assay Code: SRLT, Evaluation Type: Evaluation A (Pre-1980)) did it give?
A: no conclusion

Q: Which results are given for CN1CCN(CC(=O)NN)CC1?
A: mutagenic call [3]: inactive; negative; mutagenic call (Species/Cell Type: Saccharomyces cerevisiae, Assay Type: Mitotic recombination or gene conversion, Assay Code: YEC-*, Activation: With metabolic activation, Evaluation Type: Evaluation A (Pre-1980)): inactive; negative

Q: With CCO as the molecule, how does the mutagenic call (Species/Cell Type: Arabidopsis species, Assay Type: Gene mutation, Assay Code: ARM-, Evaluation Type: Evaluation A (Pre-1980)) read?
A: inactive; negative

Q: What about the mutagenic call (Species/Cell Type: Aspergillus nidulans, Assay Type: Forward gene mutation, Assay Code: ASF-, Evaluation Type: Evaluation A (Pre-1980)) of the same molecule?
A: inactive; negative

Q: What about the mutagenic call (Species/Cell Type: Fischer rat embryo (RLV/1706) cells, Assay Type: Cell transformation, viral enhanced, Assay Code: CTR-, Evaluation Type: Evaluation A (Pre-1980)) of the same molecule?
A: inactive; negative

Q: What about the mutagenic call (Species/Cell Type: Human lymphocytes, Assay Type: Sister-chromatid exchange (SCE) in vitro, Assay Code: SCL+D, Dose Response: With dose response, Evaluation Type: Evaluation B (Post-1980)) of the same molecule?
A: active; positive

Q: And the mutagenic call (Species/Cell Type: Human lymphocytes, Assay Type: Sister-chromatid exchange (SCE) in vitro, Assay Code: SCL-, Evaluation Type: Evaluation A (Pre-1980))?
A: inactive; negative

Q: And the mutagenic call (Species/Cell Type: Human, Assay Type: Sister-chromatid exchange (SCE) in vitro, Assay Code: SC1+D, Dose Response: With dose response, Evaluation Type: Evaluation B (Post-1980))?
A: active; positive

Q: What about the mutagenic call (Species/Cell Type: Human, Assay Type: Sister-chromatid exchange (SCE) in vitro, Assay Code: SC1-, Evaluation Type: Evaluation A (Pre-1980)) of the same molecule?
A: inactive; negative

Q: What about the mutagenic call (Species/Cell Type: Mammalian polychromatic erythrocytes, Assay Type: Micronucleus test, chromosome aberrations, Assay Code: MNT-, Evaluation Type: Evaluation A (Pre-1980)) of the same molecule?
A: inactive; negative

Q: And the mutagenic call (Species/Cell Type: Mouse, Sex: Male, Assay Type: Sperm morphology, Assay Code: SPI-, Evaluation Type: Evaluation A (Pre-1980))?
A: inactive; negative

Q: And the mutagenic call (Species/Cell Type: Neurospora crassa, Assay Type: Aneuploidy, chromosome aberrations, Assay Code: NEN-, Evaluation Type: Evaluation A (Pre-1980))?
A: inactive; negative

Q: What about the mutagenic call (Species/Cell Type: Nonhuman, Assay Type: Chromosome aberrations in vitro, Assay Code: CY&-, Evaluation Type: Evaluation A (Pre-1980)) of the same molecule?
A: inactive; negative

Q: And the call (Species/Cell Type: Nonhuman, Assay Type: In vivo carcinogenicity studies, Assay Code: CCG-L, Evaluation Type: Evaluation A (Pre-1980))?
A: inactive; negative

Q: And the mutagenic call (Species/Cell Type: Nonhuman, Assay Type: Sister-chromatid exchange (SCE) in vitro, Assay Code: SC2+D, Dose Response: With dose response, Evaluation Type: Evaluation B (Post-1980))?
A: active; positive

Q: What about the mutagenic call (Species/Cell Type: Nonhuman, Assay Type: Sister-chromatid exchange (SCE) in vitro, Assay Code: SC2-, Evaluation Type: Evaluation A (Pre-1980)) of the same molecule?
A: inactive; negative

Q: What about the mutagenic call (Species/Cell Type: Nonhuman, Assay Type: Sister-chromatid exchange (SCE) in vivo, Assay Code: SC3+, Evaluation Type: Evaluation B (Post-1980)) of the same molecule?
A: active; positive

Q: And the mutagenic call (Species/Cell Type: Rodents, Sex: Male, Assay Type: Dominant lethal test, Assay Code: DLT+, Evaluation Type: Evaluation A (Pre-1980))?
A: active; positive

Q: What about the mutagenic call (Species/Cell Type: Salmonella typhimurium (one or more of the five standard strains: TA98, TA100, TA1535, TA1537, and TA1538), Assay Type: Histidine reverse gene mutation, Ames assay, Assay Code: SAL-, Evaluation Type: Evaluation A (Pre-1980)) of the same molecule?
A: inactive; negative

Q: What about the mutagenic call (Species/Cell Type: Syrian hamster embryo (SHE) cells, Assay Type: Cell transformation, clonal assay, Assay Code: CTC-, Evaluation Type: Evaluation A (Pre-1980)) of the same molecule?
A: inactive; negative

Q: What about the mutagenic call (Species/Cell Type: Tradescantia species, Assay Type: Gene mutation, Assay Code: TRM+D, Dose Response: With dose response, Evaluation Type: Evaluation A (Pre-1980)) of the same molecule?
A: active; positive

Q: And the mutagenic call (Species/Cell Type: Vicia faba, Assay Type: Chromosome aberrations, Assay Code: VIC+, Evaluation Type: Evaluation A (Pre-1980))?
A: active; positive
